Where “and” joins values, the source holds several entries; their conditions need not be identical. Identical values can stand only once. Like-named read-outs stand apart in the source and are kept apart here.
Experiments:
[1] = mean population model parameter; cited from earlier work
[2] = paracetamol alone vs with semaglutide; cited from earlier work
[3] = immediate release tablets, cited from earlier work
[4] = final model with semaglutide covariate
[5] = model without semaglutide covariate
[6] = semaglutide 1.0 mg s.c. once weekly at steady state
[7] = young adults, body weight 62–84 kg

CC(C)c1c(C(=O)Nc2ccccc2)c(-c2ccccc2)c(-c2ccc(F)cc2)n1CC[C@@H](O)C[C@@H](O)CC(=O)O [atorvastatin] gave a T50 estimate (atorvastatin with semaglutide) of 83 min, a T50 (atorvastatin with semaglutide (Figure 8)) of 1.38 h and a T50 estimate (atorvastatin without semaglutide) of 16 min. For the same molecule, the “ka (Placebo), Bootstrap mean [95%CI]” value (bootstrap 1000 replicates) was 6.56 [3.29–12.1] h^−1, the “ktr (Placebo), Bootstrap mean [95%CI]” value (bootstrap 1000 replicates) was 10.4 [4.48–44.0] h^−1 and the “Θkacovariate, Bootstrap mean [95%CI]” value (bootstrap 1000 replicates) was 0.821 [0.649–0.925]. The “Θktrcovariate, Bootstrap mean [95%CI]” value (bootstrap 1000 replicates) was 0.820 [0.629–0.972], the “ω^2 Ka, Bootstrap mean [95%CI]” value (bootstrap 1000 replicates) was 2.21 [1.41–3.32] and the “ω^2 Ktr, Bootstrap mean [95%CI]” value (bootstrap 1000 replicates) was 1.82 [0.390–3.17]. For the same molecule, the “Between subject variability ω^2 Ka, Estimates” value [4] was 2.03, the “Between subject variability ω^2 Ktr, Estimates” value [4] was 1.82 and the “Θkacovariate, Estimates” value (fractional reduction of ka with semaglutide (dKadplacebo)) was 0.829. The “Θktrcovariate, Estimates” value (fractional reduction of ktr with semaglutide (dKtrdplacebo)) was 0.791, the “BSV variance (Omega^2) for ka before semaglutide covariate” value [5] was 3.29 and the “BSV variance (Omega^2) for ktr before semaglutide covariate” value [5] was 3.19. The “ka when co-administered with semaglutide” value [6] was 0.986 h⁻¹, the “ktr when co-administered with semaglutide” value [6] was 1.52 h⁻¹ and the “ktr (Placebo), Estimates” value (transit compartment rate constant, without semaglutide) was 7.3 h⁻¹ and 7.28 h⁻¹. The “decrease of ka when co-administered with semaglutide” value (with vs without semaglutide) was 83%, the “decrease of ktr when co-administered with semaglutide” value (with vs without semaglutide) was 79% and the ka [1] was 3.5 h^‐1.
In the case of CC(=O)Nc1ccc(O)cc1 [paracetamol], the “alteration in paracetamol AUC0‐5h” value [2] is listed as “no significant alteration”, the ka [3] is listed as 4.33 h⁻¹ and the V1/F [3, 7] is listed as 30.7 L. For the same molecule, the V2/F [3, 7] was 19.9 L.

Reference: publication PMC9263537 (Pharmacology Research & Perspectives, 2022)
